{"source": "patent US9376675B2", "about": "“Method for preserving components of pancreatic juice in a sample, and kit for preserving components of pancreatic juice in a sample” (priority 2012, dated 2016)", "key": {"[1]": {"test_system": "Pancreatin (activated pancreatic enzyme)", "test": "Protease activity of pancreatin solution (pseudo artificial pancreatic juice), EnzCheck Protease Assay Kit with fluorescently-labeled casein", "assay_type": "biochemical, pig", "settings": "final concentration within range recommended by manufacturers; 37° C. for 2 hours; Ex/Em=485/535 nm", "method": "A protease inhibitor screen was performed to find an inhibitor targeting a serine protease and having a high inhibitory effect against pancreatic juice. The protease inhibitors used were aprotinin (product of Roche), leupeptin (product of Roche), PMSF (product of Roche), AEBSF (product of Roche), p-APMSF (product of SIGMA), camostat mesilate (Foipan: product of Wako Pure Chemical Industries), gabexate mesilate (FOY: product of Wako Pure Chemical Industries), TLCK (product of SIGMA), and TPCK (product of SIGMA). It is to be noted that TPCK is an amino acid chloromethyl ketone having inhibitory activity against chymotrypsin but having no inhibitory activity against trypsin.\n“Pancreatin”, a digestive enzyme prepared from the pig pancreas in which a pancreatic enzyme was present in activated form was used as pseudo artificial pancreatic juice. After addition of protease inhibitors in an amount so that the final concentration thereof would fall within a concentration range recommended by the manufacturers of the inhibitors, the protease activity was measured. The protease activity was measured using EnzCheck Protease Assay Kits (product of Molecular Probes). Described specifically, fluorescently-labeled casein attached to a kit was added to a pancreatin solution containing each protease inhibitor. After incubation at 37° C. for 2 hours, the amount of fluorescence was measured at a fluorescence wavelength of Ex/Em=485/535 nm. As a control, the protease activity of a sample solution (containing no inhibitor) obtained by directly adding fluorescently-labeled casein to pancreatin was measured.\nThe amount of fluorescence plotted along the ordinate represents the amount of degraded casein and it was approximated as the value of protease activity. The protease inhibitors contained respectively in the pancreatin solutions and final concentrations thereof are plotted along the abscissa. […] These inhibitors are each a sulfonyl fluoride-containing sulfone-based compound."}, "[2]": {"test_system": "S100P in human clinical pancreatic juice specimens", "test": "Room temperature storage stability of added S100P standard preparation in human clinical pancreatic juice specimens, S100P ELISA (Example 2)", "settings": "25 ng/mL S100P standard added; four human clinical pancreatic juice specimens; 25° C. for 16 hours; AEBSF 4 mM, PMSF 1 mM", "excerpt": "While attention was paid to the sulfone-based compounds found to have a high inhibitory effect against digestive enzymes in pancreatic juice in Example 1, the effect of the various sulfone-based compounds on the room temperature stability of S100P (calcium-binding protein) known as a marker protein of pancreatic cancer was studied. This means that by using four human clinical pancreatic juice specimens, whether the concentration of S100P changed or not after addition of a S100P protein standard preparation was studied before and after room temperature storage.\nDescribed specifically, sample solutions were prepared as follows: (1) Sample Solution 1: containing no inhibitor, obtained by mixing 25 ng/mL of an S100P (standard preparation) solution with the human clinical specimens, respectively. (2) Sample Solution 2: AEBSF, obtained by adding AEBSF (final concentration: 4 mM) to Sample Solution 1. […] Then, S100P was detected using CircuLex S100P ELISA Kit (product of Cyclex, Catalogue Number: CY-8060) from solutions obtained by carrying out 10-fold dilution of the sample solutions with a buffer attached to CircuLex S100P ELISA Kit, respectively. As a control, S100P was detected similarly from Sample Solution 1 immediately after preservation (that is, before room temperature storage). […]"}, "[3]": {"test_system": "S100P in human pancreatic juice specimens", "test": "Room temperature storage stability of S100P in human clinical pancreatic juice specimens versus freeze storage, S100P ELISA (Example 3)", "settings": "seven human clinical specimens; 25° C. for 16 hours; AEBSF 4 mM, PMSF 1 mM", "method": "With a view to improving the storage performance of pancreatic proteins further, it was studied whether the storage stability of S100P was influenced by the combined use of the sulfonyl fluoride-containing sulfone-based compound and TLCK, that is, another […] compound. Seven human clinical specimens were used.\nDescribed specifically, sample solutions were prepared as follows: (1) Sample Solution 1: AEBSF, obtained by adding AEBSF (final concentration: 4 mM) to the human clinical specimens. (2) Sample Solution 2: AEBSF+PMSF, obtained by adding AEBSF (final concentration: 4 mM) and PMSF (final concentration: 1 mM) to the human clinical specimens. (3) Sample Solution 3: AEBSF+PMSF+Aprotinin, obtained by adding AEBSF (final concentration: 4 mM), PMSF (final concentration: 1 mM) and Aprotinin (final concentration: 3 μM) to the human clinical specimens. […]\nThe concentration of S100P is plotted along the ordinate, while Sample Solutions 1 to 5 (“AEBSF”, “AEBSF+PMSF”, “AEBSF+PMSF+Aprotinin”, “AEBSF+PMSF+TPCK”, and “AEBSF+PMSF+TLCK” in the graph) of the human pancreatic juice specimens 1 to 7 are plotted along the abscissa. […] As a result, in the sample solutions after frozen storage, S100P was detected, though varying in amount, from all the human pancreatic juice specimens irrespective of the kind of the protease inhibitor added. […]"}, "[4]": {"test_system": "S100P in human pancreatic juice specimens 1 and 2", "test": "Room temperature storage stability of added S100P standard preparation in human pancreatic juice specimens 1 and 2, S100P ELISA (Example 4)", "settings": "25 ng/mL S100P standard added (exogenous), 25° C. for 16 hours, AEBSF 4 mM, PMSF 1 mM, TLCK 1 mM", "method": "An effect of a protease inhibitor for storage stability of S100P in a pseudo artificial pancreatic juice and that for storage stability of S100P in a human clinical specimen were compared. As a S100P-containing pseudo artificial pancreatic juice, a solution obtained by adding S100P (standard preparation) to a pancreatin solution to give a concentration of 25 ng/mL was used.\nMore specifically, sample solutions were prepared as follows: (1) Sample Solution 1: containing no inhibitor, obtained by mixing 25 ng/mL of an S100P (standard preparation) solution with the two human clinical specimens (human pancreatic juice specimens 1 and 2) used in Example 3 and the pseudo artificial pancreatic juice. […]\nThe concentration of S100P is plotted along the ordinate, while Sample Solutions 1 to 4 using the human pancreatic juice specimens 1 and 2 and the S100P-containing pseudo artificial pancreatic juice (“Without inhibitor”, “AEBSF”, “AEBSF+PMSF”, and “AEBSF+PMSF+TLCK” in the graph) are plotted along the abscissa. […] As a result, in the sample solutions after freeze storage, S100P was detected from both the human pancreatic juice specimen and the pancreatin solution. On the other hand, with regard to the sample solutions after room temperature storage, no S100P was detected from the pancreatin solutions irrespective of the presence or absence or the kind of the protease inhibitor."}}}
{"smiles": "Cc1ccc(S(=O)(=O)N[C@@H](CCCCN)C(=O)CCl)cc1", "note": "[TLCK, N-a-tosyl-L-lysine chloromethyl ketone]", "values": [{"measurement": "inhibitory effect on protease activity (amount of fluorescence = degraded casein) of pancreatin solution", "setting": "[1]", "result": "not effective inhibitors by themselves"}]}
{"smiles": "NCCc1ccc(S(=O)(=O)F)cc1", "note": "[AEBSF, 4-(2-aminoethyl)-benzenesulfonyl fluoride]", "values": [{"measurement": "S100P concentration after room temperature storage", "setting": "[2]", "result": "S100P was detected from any of the pancreatic juice specimens"}, {"measurement": "S100P detection amount after room temperature storage compared with freeze storage", "setting": "[3]", "result": "the detection amount was very small compared with that after freeze storage"}, {"measurement": "inhibitory effect on protease activity (amount of fluorescence = degraded casein) of pancreatin solution", "setting": "[1]", "result": "markedly high inhibitory effect"}, {"measurement": "detection amount of S100P after room temperature storage", "setting": "[4]", "result": "detection amount of S100P is greater"}]}
{"smiles": "O=S(=O)(F)Cc1ccccc1", "note": "[PMSF, phenylmethylsulfonyl fluoride]", "values": [{"measurement": "inhibitory effect on protease activity (amount of fluorescence = degraded casein) of pancreatin solution", "setting": "[1]", "result": "markedly high inhibitory effect"}]}
{"smiles": "Cl.N=C(N)c1ccc(CS(=O)(=O)F)cc1", "note": "[p-APMSF, p-amidinophenylmethanesulfonyl fluoride hydrochloride]", "values": [{"measurement": "inhibitory effect on protease activity (amount of fluorescence = degraded casein) of pancreatin solution", "setting": "[1]", "result": "markedly high inhibitory effect"}]}
